We go through 2 compounds from US20230143604A1, “QW DOSING OF GIP RECEPTOR AGONIST PEPTIDE COMPOUNDS AND USES THEREOF” (TAKEDA PHARMACEUTICAL COMPANY LIMITED, priority 2020, published 2023).

Usually EC50 stands for the concentration that produces a half-maximal response. In general, solubility refers to the concentration that dissolves in the medium under given conditions. The low end stands for little dissolved substance, the high end for much dissolved substance.

Read-outs that look alike come from different tables or passages of the source.

Data set [1] is described as follows: Dog plasma protein binding (PPB). In kind it is in vitro ADME. The following applies: pH 7.4; fraction unbound; dog serum; read-out: Dog PPB (FUplasma). An outline of the steps:
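Dog serum replaced human serum, with the protocol and analysis otherwise the same as for human plasma protein binding. Values are reported as fraction unbound (Fu,plasma) expressed as a percentage.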

Data set [2] addresses T1, human GLP-1R (Homo sapiens, UniProt P43220).
T1 construct: HEK-293T cells overexpressing full-length human GLP-1R; FLAG (N); host or cells: HEK-293T
The experiment in a line: Human GLP1R agonist activity, intracellular cAMP accumulation. In kind it is cell-based. The following applies: HEK-293T cells overexpressing human GLP-1R, 1 hr. An outline of the steps: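 Frozen assay-ready cells washed and resuspended at 4×10^5 cells/mL in Krebs Ringer buffer, then incubated with compound 1 hr at room temperature in the dark. cAMP read by HTRF (anti-cAMP antibody, d2-cAMP tracer). Normalised to 1 nm GLP-1 (100%) and DMSO (0%).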

Data set [3] in a line: Human plasma protein binding (PPB). Particulars: both sexes, pH 7.4; fraction unbound; human plasma, 1000 nmol/L peptide, ultracentrifugation; read-out: Human PPB (FUplasma). Format: in vitro ADME. An outline of the steps: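 Peptides spiked at 1000 nmol/L into pooled human K2-EDTA plasma adjusted to pH 7.4, incubated 30 min at 37 °C, then ultracentrifuged at ~450,000 g, 4 °C for 3 h. Fu derived from LC-MS/MS (MRM) peak area ratios, supernatant versus plasma.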

The target in data set [4] is T2, human GIPR (Homo sapiens, UniProt P48546).
T2 construct: HEK-293T cells overexpressing full-length human GIPR; FLAG (N); host or cells: HEK-293T
T2 sequence (P48546 22-466): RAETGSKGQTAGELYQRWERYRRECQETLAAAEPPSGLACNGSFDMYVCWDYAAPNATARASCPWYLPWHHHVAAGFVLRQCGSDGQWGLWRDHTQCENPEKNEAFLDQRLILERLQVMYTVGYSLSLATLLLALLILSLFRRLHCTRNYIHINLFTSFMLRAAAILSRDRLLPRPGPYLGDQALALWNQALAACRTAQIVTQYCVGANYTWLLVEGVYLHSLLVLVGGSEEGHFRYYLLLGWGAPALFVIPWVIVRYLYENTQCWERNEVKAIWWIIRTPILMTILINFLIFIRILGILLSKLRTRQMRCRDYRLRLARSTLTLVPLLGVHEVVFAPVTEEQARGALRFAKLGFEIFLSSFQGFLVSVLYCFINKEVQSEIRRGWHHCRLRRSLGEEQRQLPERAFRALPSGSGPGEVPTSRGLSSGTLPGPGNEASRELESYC
The experiment in a line: Human GIPR agonist activity, intracellular cAMP accumulation. In kind it is cell-based. The procedure:
Cells are cultured per the manufacturer's protocol in DMEM with 10% fetal bovine serum and 1 μg/mL puromycin and stored in frozen aliquots to be used as assay ready cells. On the day of the assay, cells are removed from frozen storage, washed two times in 1× Kreb's Ringer Buffer (Zenbio, Research Triangle Park, N.C.), and re-suspended to a concentration of 4×10^5 cells/mL in 1× Kreb's Ringer Buffer. […] Cells are incubated with test compound for 1 hr at room temperature in the dark, and cAMP accumulation is measured using the Cisbio HiRange cAMP assay kit (Bedford, Mass.) per the manufacturer's protocol. Anti-cAMP antibody and d2-cAMP tracer reagents diluted in lysis/detection buffer are incubated in the dark for 1 hr, and results are measured on an Envision plate reader (Perkin Elmer, Waltham, Mass.). Data is normalized using 1 nM GIP as 100% activity, and DMSO alone as 0% activity.
On the technique in general: Changes in cAMP serve as a functional read-out for many G protein-coupled receptors.

Data set [5] relates to C57BL/6J mice. The experiment in a line: Oral glucose tolerance test (OGTT). Format: in vivo. The following applies: 3 nmol/kg s.c., 24 hours before glucose loading. An outline of the steps: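 Peptide or vehicle given s.c. at 0.1, 0.3, 3 or 10 nmol/kg (peptide-dependent), 24 h before oral 50% dextrose at 5 ml/kg unless stated otherwise. Blood glucose read at 0, 15, 30 and 60 min. % inhibition = (1−(AUC cpd−AUC naïve)/(AUC veh−AUC naïve))×100.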

Data set [6] can be described thus: Solubility in phosphate buffer pH 7.4. An outline of the steps: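 3 mg of peptide treated with 100 μL portions of 200 mM phosphate buffer pH 7.4, sonicating/vortexing up to 1 min, with further buffer added until fully dissolved. Solubility then quantified by HPLC.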

T1 sequence (P43220 24-463): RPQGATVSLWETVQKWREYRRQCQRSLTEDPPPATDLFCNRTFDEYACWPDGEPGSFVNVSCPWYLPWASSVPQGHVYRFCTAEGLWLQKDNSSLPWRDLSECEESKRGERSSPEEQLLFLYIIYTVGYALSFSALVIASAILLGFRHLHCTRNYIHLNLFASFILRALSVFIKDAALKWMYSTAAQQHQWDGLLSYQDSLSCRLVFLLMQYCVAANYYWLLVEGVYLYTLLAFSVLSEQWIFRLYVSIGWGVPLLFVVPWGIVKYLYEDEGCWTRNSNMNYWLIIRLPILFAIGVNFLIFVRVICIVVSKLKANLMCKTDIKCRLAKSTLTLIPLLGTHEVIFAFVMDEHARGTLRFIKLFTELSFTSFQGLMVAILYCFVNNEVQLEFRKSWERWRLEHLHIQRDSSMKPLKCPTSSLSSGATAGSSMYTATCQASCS

On to `CC[C@H](C)[C@H](NC(=O)[C@H](CO)NC(=O)[C@H](Cc1ccc(O)cc1)NC(=O)[C@H](CC(=O)O)NC(=O)[C@H](CO)NC(=O)[C@@H](NC(=O)[C@H](Cc1ccccc1)NC(=O)[C@@H](NC(=O)CNC(=O)[C@H](CCC(=O)O)NC(=O)C(C)(C)NC(=O)[C@H](Cc1ccc(O)cc1)NC)[C@@H](C)O)[C@@H](C)CC)C(=O)N[C@@H](C)C(=O)N[C@@H](CCCCNC(=O)CNC(=O)CNC(=O)CNC(=O)CNC(=O)CNC(=O)CCCCCCCCCCCCCCCCC(=O)O)C(=O)N[C@@H](CC(=O)O)C(=O)N[C@@H](CCCNC(=N)N)C(=O)NC(C)(C)C(=O)N[C@@H](C)C(=O)N[C@@H](CCC(N)=O)C(=O)NC(C)(C)C(=O)N[C@@H](CC(N)=O)C(=O)N[C@@H](Cc1ccccc1)C(=O)N[C@H](C(=O)N[C@@H](CC(N)=O)C(=O)N[C@@H](Cc1c[nH]c2ccccc12)C(=O)N[C@@H](CC(C)C)C(=O)N[C@@H](CC(C)C)C(=O)N[C@@H](C)C(=O)N[C@@H](CCC(N)=O)C(=O)N[C@@H](CCCNC(=N)N)C(=O)N1CCC[C@H]1C(=O)N[C@@H](CO)C(=O)N[C@@H](CO)C(=O)NCC(=O)N[C@@H](C)C(=O)N1CCC[C@H]1C(=O)N1CCC[C@H]1C(=O)N1CCC[C@H]1C(=O)N[C@@H](CO)C(=O)O)C(C)C` [Compound 44], for which the fraction unbound at 30 min, 1000 nmol/L was 0.0004 in data set [1] and 0.0007 in data set [3]. For the same compound, the EC50 in data set [2] (Human GLP1R cAMP EC50, HEK293T (nM)) worked out at 10.7 nM; in data set [4] it was 0.0017 nM. In data set [5], the “Oral Glucose Tolerance Test Percent decrease in blood glucose AUC (%) over 60 mins” value is 119% (3 nmol/kg). Also, the solubility is at least 30 mg/mL in data set [6] (pH 7.4, aqueous buffer, pH 7.4 Phosphate Buffer - Solubility, 200 mM Phosphate buffer pH 7.4) and at least 15 mg/mL in data set [6] (pH 7.4, solubility in phosphate buffer at pH 7.4, 200 mM phosphate buffer pH 7.4).
As for `CC[C@H](C)[C@H](NC(=O)[C@H](Cc1ccccc1)NC(=O)[C@@H](NC(=O)CNC(=O)[C@H](CCC(=O)O)NC(=O)C(C)(C)NC(=O)[C@@H](N)Cc1ccc(O)cc1)[C@@H](C)O)C(=O)N[C@@H](CO)C(=O)N[C@@H](CC(=O)O)C(=O)N[C@@H](Cc1ccc(O)cc1)C(=O)N[C@@H](CO)C(=O)N[C@H](C(=O)NC(C)(C)C(=O)N[C@@H](CCCCNC(=O)CNC(=O)CNC(=O)CNC(=O)CNC(=O)CNC(=O)CCCCCCCCCCCCCCCCC(=O)O)C(=O)N[C@@H](CC(=O)O)C(=O)N[C@@H](CCCNC(=N)N)C(=O)NC(C)(C)C(=O)N[C@@H](C)C(=O)N[C@@H](CCC(N)=O)C(=O)NC(C)(C)C(=O)N[C@@H](CC(=O)O)C(=O)N[C@@H](Cc1ccccc1)C(=O)N[C@H](C(=O)N[C@@H](CC(N)=O)C(=O)N[C@@H](Cc1c[nH]c2ccccc12)C(=O)N[C@@H](CC(C)C)C(=O)N[C@@H](CC(C)C)C(=O)N[C@@H](C)C(=O)N[C@@H](CCC(N)=O)C(=O)N[C@@H](CCCNC(=N)N)C(=O)NCC(=O)O)C(C)C)[C@@H](C)CC` [Compound 137], the half-maximal effective concentration (EC50) came to 3.47 nM in data set [2] (read-out: Human GLP1R cAMP EC50, HEK293T) and 0.0013 nM in data set [4] (HEK-293T cells overexpressing human GIPR, cAMP accumulation, 1 hr, read-out: Human GIPR cAMP EC50, HEK293T). In addition, in data set [5], the “Oral Glucose Tolerance Test Percent decrease in blood glucose AUC (%) over 60 mins” value is recorded as 23% (3 nmol/kg). The solubility in data set [6] (pH 7.4) was at least 15 mg/mL; in data set [6] (pH 7.4, aqueous buffer) it was at least 30 mg/mL.
